IC50 data for 16 compounds are collected here from patent US20240360178A1, “MACROCYCLIC IMMUNOMODULATORS” (Bristol-Myers Squibb Company, priority 2021, published 2024).

The target in this assay is T1, human PD-1 (Jurkat-PD-1 cells) / PE-labeled human PD-L1-Ig (Homo sapiens, UniProt Q15116).
T1 construct: expressed in transfected cells; host or cells: Jurkat cell line over-expressing human PD-1
The experiment in a line: Jurkat-PD-1 Cell Binding High-Content Screening Assay (CBA); Jurkat hPD1-PDL1 assay. Particulars: Jurkat cell line over-expressing human PD-1; PE-labeled PD-L1-Ig 20 nM final; compound incubated 2 hours at 37° C.; read-out: Jurkat HPD1-PDL1 IC50. In outline: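 Binding of phycoerythrin-conjugated PD-L1-Ig (20 nM final) to PD-1-overexpressing Jurkat cells was read by high-content imaging. Cells in DMEM/10% FCS were exposed to compound for 2 hours at 37° C before labeled ligand was added.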

Broadly, the IC50 is the concentration at which inhibition is half-maximal.

Positions of bridges follow the written chain, without caps; N, C: chain ends. Non-standard residues stand in square brackets, D forms with d. Residues, ends and D or L forms follow the SMILES beside them. ξ: configuration not given here. Bip = N[C@@H](Cc1ccc(-c2ccccc2)cc1)C(=O)O; Phe(4-CN) = N#Cc1ccc(C[C@H](N)C(=O)O)cc1; NMeF = CN[C@@H](Cc1ccccc1)C(=O)O; 4Pal = N[C@@H](Cc1ccncc1)C(=O)O; dTic = O=C(O)[C@H]1Cc2ccccc2CN1; Cha = N[C@@H](CC1CCCCC1)C(=O)O; Thr(3ξ) = CC(O)[C@H](N)C(=O)O; ξR = N=C(N)NCCCC(N)C(=O)O; NMeA = CN[C@@H](C)C(=O)O; Orn = NCCC[C@H](N)C(=O)O; dNMeA = CN[C@H](C)C(=O)O; Dab = NCC[C@H](N)C(=O)O; Dap = NC[C@H](N)C(=O)O; Sar = CNCC(=O)O

T1 sequence (Q15116 25-288): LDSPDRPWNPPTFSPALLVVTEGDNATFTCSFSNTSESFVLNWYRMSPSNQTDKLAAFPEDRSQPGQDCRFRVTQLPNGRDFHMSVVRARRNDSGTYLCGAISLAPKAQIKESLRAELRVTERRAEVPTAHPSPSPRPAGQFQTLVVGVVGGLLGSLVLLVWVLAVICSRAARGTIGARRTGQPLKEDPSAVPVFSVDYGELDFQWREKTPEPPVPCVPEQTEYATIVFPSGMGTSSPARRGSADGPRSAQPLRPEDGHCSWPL

Consider `CC(C)C[C@@H]1NC(=O)[C@H](CCCN)NC(=O)[C@H](Cc2ccccc2)N(C)C(=O)[C@H](C)N(C)C(=O)[C@H](CCCNC(=N)N)NC(=O)[C@H](Cc2ccc(-c3ccccc3)cc2)NC(=O)[C@H](C(C)C)NC(=O)[C@H](Cc2c[nH]c3ccccc23)NC(=O)[C@H](CC(=O)O)NC(=O)[C@H](Cc2ccc(O)cc2)NC(=O)[C@H](CC(N)=O)NC(=O)CSC[C@@H](C(=O)N[C@@H](CO)C(N)=O)NC(=O)[C@H]([C@@H](C)O)NC(=O)[C@H](C(C)C)NC1=O` [Example 1353] ({CH2CO}-NYDWV[Bip]R[NMeA][NMeF][Orn]LVTCS-NH2; thioether N-14), for which the IC50 worked out at 90 nM. In the case of `CC(C)C[C@@H]1NC(=O)[C@H](Cc2c[nH]c3ccccc23)NC(=O)[C@H](CC(=O)O)NC(=O)[C@H](Cc2ccc(O)cc2)NC(=O)[C@H](Cc2ccccc2)NC(=O)CSC[C@@H](C(=O)NCC(N)=O)NC(=O)[C@H](CO)NC(=O)[C@H](C(C)C)NC(=O)[C@H](CC(C)C)NC(=O)[C@H](CCN)NC(=O)[C@H]2CCCN2C(=O)[C@H](C)N(C)C(=O)[C@H](C(C)C)NC(=O)[C@H](Cc2ccc(-c3ccccc3)cc2)NC1=O` [Example 1399] ({CH2CO}-FYDWL[Bip]V[NMeA][dP][Dab]LVSCG-NH2; thioether N-14) it was 70 nM; in that of `CC(C)C[C@@H]1NC(=O)[C@H](CCCN)NC(=O)[C@H]2Cc3ccccc3CN2C(=O)[C@H](C)N(C)C(=O)[C@H](CCCNC(=N)N)NC(=O)[C@H](Cc2ccc(-c3ccccc3)cc2)NC(=O)[C@H](C(C)C)NC(=O)[C@H](Cc2c[nH]c3ccccc23)NC(=O)[C@H](CC(=O)O)NC(=O)[C@H](Cc2ccc(O)cc2)NC(=O)[C@H](CC(N)=O)NC(=O)CSC[C@@H](C(=O)N[C@@H](C)C(N)=O)NC(=O)[C@H]([C@@H](C)O)NC(=O)[C@H](C(C)C)NC1=O` [Example 1356] ({CH2CO}-NYDWV[Bip]R[NMeA][dTic][Orn]LVTCA-NH2; thioether N-14), 270 nM. In the case of `CC(C)C[C@@H]1NC(=O)[C@H](Cc2c[nH]c3ccccc23)NC(=O)[C@H](CC(=O)O)NC(=O)[C@H](Cc2ccc(O)cc2)NC(=O)[C@H](Cc2ccccc2)NC(=O)CSC[C@@H](C(=O)NCC(N)=O)NC(=O)[C@H]([C@@H](C)O)NC(=O)[C@H](C(C)C)NC(=O)[C@H](CC(C)C)NC(=O)[C@H](CC(N)=O)NC(=O)[C@H]2CCCN2C(=O)[C@H](C)N(C)C(=O)[C@H](C(C)C)NC(=O)[C@H](Cc2ccc(-c3ccccc3)cc2)NC1=O` [Example 1395] ({CH2CO}-FYDWL[Bip]V[NMeA][dP]NLVTCG-NH2; thioether N-14) it was 160 nM; in that of `CC(C)C[C@@H]1NC(=O)[C@H](Cc2c[nH]c3ccccc23)NC(=O)[C@H](CC(=O)O)NC(=O)[C@H](Cc2ccc(O)cc2)NC(=O)[C@H](Cc2ccc(C#N)cc2)NC(=O)CSC[C@@H](C(=O)NCC(N)=O)NC(=O)[C@H](CO)NC(=O)[C@H](C(C)C)NC(=O)[C@H](CC(C)C)NC(=O)[C@H](CC(N)=O)NC(=O)CN(C)C(=O)[C@H](C)N(C)C(=O)[C@H](C(C)C)NC(=O)[C@H](Cc2ccc(-c3ccccc3)cc2)NC1=O` [Example 1128] ({CH2CO}-[Phe(4-CN)]YDWL[Bip]V[NMeA][Sar]NLVSCG-NH2; thioether N-14), 490 nM; in that of `CC(C)C[C@@H]1NC(=O)[C@H](CCCNC(=N)N)NC(=O)[C@H](Cc2ccccc2)N(C)C(=O)[C@H](C)N(C)C(=O)[C@H](CCCNC(=N)N)NC(=O)[C@H](Cc2ccc(-c3ccccc3)cc2)NC(=O)[C@H](C(C)C)NC(=O)[C@H](Cc2c[nH]c3ccccc23)NC(=O)[C@H](CC(=O)O)NC(=O)[C@H](Cc2ccc(O)cc2)NC(=O)[C@H](Cc2ccccc2)NC(=O)CSC[C@@H](C(=O)NCC(N)=O)NC(=O)[C@H]([C@@H](C)O)NC(=O)[C@H](C(C)C)NC1=O` [Example 1129] ({CH2CO}-FYDWV[Bip]R[NMeA][NMeF]RLVTCG-NH2; thioether N-14), 500 nM. As for `CC(C)C[C@@H]1NC(=O)[C@H](Cc2c[nH]c3ccccc23)NC(=O)[C@H](CC(=O)O)NC(=O)[C@H](Cc2ccc(O)cc2)NC(=O)[C@H](CC2CCCCC2)NC(=O)CSC[C@@H](C(=O)NCC(N)=O)NC(=O)[C@H](CO)NC(=O)[C@H](C(C)C)NC(=O)[C@H](CC(C)C)NC(=O)[C@H](CC(N)=O)NC(=O)CN(C)C(=O)[C@H](C)N(C)C(=O)[C@H](C(C)C)NC(=O)[C@H](Cc2ccc(-c3ccccc3)cc2)NC1=O` [Example 1117] ({CH2CO}-[Cha]YDWL[Bip]V[NMeA][Sar]NLVSCG-NH2; thioether N-14), the IC50 worked out at 410 nM. On to `CC(C)C[C@@H]1NC(=O)[C@H](Cc2c[nH]c3ccccc23)NC(=O)[C@H](CC(=O)O)NC(=O)[C@H](Cc2ccccc2)NC(=O)[C@H](Cc2ccccc2)NC(=O)CSC[C@@H](C(=O)N[C@@H](C)C(N)=O)NC(=O)[C@H](CO)NC(=O)[C@H](C(C)C)NC(=O)[C@H](CC(C)C)NC(=O)[C@H](CC(N)=O)NC(=O)CN(C)C(=O)[C@H](C)N(C)C(=O)[C@H](C(C)C)NC(=O)[C@H](Cc2ccc(-c3ccccc3)cc2)NC1=O` [Example 1165] ({CH2CO}-FFDWL[Bip]V[NMeA][Sar]NLVSCA-NH2; thioether N-14), for which the half-maximal inhibitory concentration (IC50) stood at 900 nM. As to `CC(C)C[C@@H]1NC(=O)[C@H](CCCNC(=N)N)NC(=O)CN(C)C(=O)[C@H](C)N(C)C(=O)[C@H](C(C)C)NC(=O)[C@H](Cc2ccc(-c3ccccc3)cc2)NC(=O)[C@H](Cc2ccc(O)cc2)NC(=O)[C@H](Cc2c[nH]c3ccccc23)NC(=O)[C@H](CC(=O)O)NC(=O)[C@H](Cc2ccc(O)cc2)NC(=O)[C@H](Cc2ccccc2)NC(=O)CSC[C@@H](C(=O)NCC(N)=O)NC(=O)[C@H](CO)NC(=O)[C@H](C(C)C)NC1=O` [Example 1236] ({CH2CO}-FYDWY[Bip]V[NMeA][Sar]RLVSCG-NH2; thioether N-14), the IC50 is 440 nM.

Turning to `CC(C)C[C@@H]1NC(=O)[C@H](C)NC(=O)CN(C)C(=O)[C@H](C)N(C)C(=O)[C@H](CCC(=O)O)NC(=O)[C@H](Cc2ccc(-c3ccccc3)cc2)NC(=O)[C@H](CC(C)C)NC(=O)[C@H](Cc2c[nH]c3ccccc23)NC(=O)[C@H](CC(=O)O)NC(=O)[C@H](Cc2ccc(O)cc2)NC(=O)[C@H](Cc2ccccc2)NC(=O)CSC[C@@H](C(=O)N[C@@H](C)C(N)=O)NC(=O)[C@H](CO)NC(=O)[C@H](C(C)C)NC1=O` [Example 1164] ({CH2CO}-FYDWL[Bip]E[NMeA][Sar]ALVSCA-NH2; thioether N-14), the IC50 came to 900 nM.

On to `CC(C)C[C@@H]1NC(=O)[C@H](CCCNC(=N)N)NC(=O)[C@H](Cc2ccccc2)N(C)C(=O)[C@H](CCCCN)NC(=O)[C@H](CCCNC(=N)N)NC(=O)[C@H](Cc2ccc(-c3ccccc3)cc2)NC(=O)[C@H](C(C)C)NC(=O)[C@H](Cc2c[nH]c3ccccc23)NC(=O)[C@H](CC(=O)O)NC(=O)[C@H](Cc2ccc(O)cc2)NC(=O)[C@H](CC(N)=O)NC(=O)CSC[C@@H](C(=O)N[C@@H](C)C(N)=O)NC(=O)[C@H]([C@@H](C)O)NC(=O)[C@H](C(C)C)NC1=O` [Example 1365] ({CH2CO}-NYDWV[Bip]RK[NMeF]RLVTCA-NH2; thioether N-14), for which the IC50 amounted to 760 nM.

For the compound `CC(C)C[C@@H]1NC(=O)[C@H](CCCNC(=N)N)NC(=O)[C@H](Cc2ccccc2)N(C)C(=O)[C@H](C)N(C)C(=O)[C@H](CCCNC(=N)N)NC(=O)[C@H](Cc2ccc(-c3ccccc3)cc2)NC(=O)[C@H]([C@@H](C)O)NC(=O)[C@H](Cc2c[nH]c3ccccc23)NC(=O)[C@H](CC(=O)O)NC(=O)[C@H](Cc2ccc(O)cc2)NC(=O)[C@H](Cc2ccccc2)NC(=O)CSC[C@@H](C(=O)NCC(N)=O)NC(=O)[C@H](CO)NC(=O)[C@H](C(C)C)NC1=O` [Example 1283] ({CH2CO}-FYDWT[Bip]R[NMeA][NMeF]RLVSCG-NH2; thioether N-14), the IC50 amounted to 700 nM. The figure for `CC(C)C[C@@H]1NC(=O)[C@H](C(C)C)NC(=O)[C@H](Cc2ccccc2)N(C)C(=O)[C@H](C)N(C)C(=O)[C@H](CCCNC(=N)N)NC(=O)[C@H](Cc2ccc(-c3ccccc3)cc2)NC(=O)[C@H](C(C)C)NC(=O)[C@H](Cc2c[nH]c3ccccc23)NC(=O)[C@H](CC(=O)O)NC(=O)[C@H](Cc2ccc(O)cc2)NC(=O)[C@H](Cc2ccccc2)NC(=O)CSC[C@@H](C(=O)NCC(N)=O)NC(=O)[C@H](CO)NC(=O)[C@H](C(C)C)NC1=O` [Example 1239] ({CH2CO}-FYDWV[Bip]R[NMeA][NMeF]VLVSCG-NH2; thioether N-14) is 110 nM; for `CC(C)[C@@H]1NC(=O)[C@H](Cc2c[nH]c3ccccc23)NC(=O)[C@H](CC(=O)O)NC(=O)[C@H](Cc2ccncc2)NC(=O)[C@H](CN)NC(=O)CSC[C@@H](C(=O)NCC(N)=O)NC(=O)[C@H](C(C)O)NC(=O)[C@H](C(C)C)NC(=O)[C@H](CC2CCCCC2)NC(=O)[C@H](CCN)NC(=O)[C@@H](C)N(C)C(=O)[C@H](CCCN)NC(=O)[C@H](CN)NC(=O)[C@H](Cc2ccc(-c3ccccc3)cc2)NC1=O` (stereo partly shown) [Example 1434] ({CH2CO}-[Dap][4Pal]DWV[Bip][Dap][Orn][dNMeA][Dab][Cha]V[Thr(3ξ)]CG-NH2; thioether N-14) it is 100 nM; for `CC(C)C[C@@H]1NC(=O)[C@H](Cc2c[nH]c3ccccc23)NC(=O)[C@H](CC(=O)O)NC(=O)[C@H](Cc2ccc(O)cc2)NC(=O)[C@H](Cc2ccccc2)NC(=O)CSC[C@@H](C(=O)NCC(N)=O)NC(=O)[C@H](CO)NC(=O)[C@H](C(C)C)NC(=O)[C@H](CC(C)C)NC(=O)[C@H](CC(N)=O)NC(=O)CN(C)C(=O)[C@H](C)N(C)C(=O)[C@H](C(C)C)NC(=O)[C@H](Cc2ccc(-c3ccccc3)cc2)NC1=O` [Example 1001] ({CH2CO}-FYDWL[Bip]V[NMeA][Sar]NLVSCG-NH2; thioether N-14) it is 920 nM.

With `CC(C)C[C@@H]1NC(=O)C(CCCNC(=N)N)NC(=O)[C@H](Cc2ccccc2)N(C)C(=O)[C@H](C)N(C)C(=O)[C@H](CCCNC(=N)N)NC(=O)[C@H](Cc2ccc(-c3ccccc3)cc2)NC(=O)[C@H](C(C)C)NC(=O)[C@H](Cc2c[nH]c3ccccc23)NC(=O)[C@H](CC(=O)O)NC(=O)[C@H](Cc2ccc(O)cc2)NC(=O)[C@H](Cc2ccccc2)NC(=O)CSC[C@@H](C(=O)NCC(N)=O)NC(=O)[C@H](CO)NC(=O)[C@H](CCC(=O)O)NC1=O` (stereo partly shown) [Example 1218] ({CH2CO}-FYDWV[Bip]R[NMeA][NMeF][ξR]LESCG-NH2; thioether N-14), the IC50 worked out at 230 nM.
